Structures are written as SMILES.

For the assay, the system named is HIV. Nature of the assay: MT4 assay, antiviral HIV activity. Particulars: Human immunodeficiency virus 1, 96 h, read-out: HIV MT4 Assay IC50. In kind it is cell-based. On the procedure:
Antiviral HIV activity and cytotoxicity values for compounds of the invention from Table 1 were measured in parallel in the HTLV-1 transformed cell line MT-4 based on the method previously described (Hazen et al., 2007, In vitro antiviral activity of the novel, tyrosyl-based human immunodeficiency virus (HIV) type 1 protease inhibitor brecanavir (GW640385) in combination with other antiretrovirals and against a panel of protease inhibitor-resistant HIV (Hazen et al., “In vitro antiviral activity of the novel, tyrosyl-based human immunodeficiency virus (HIV) type 1 protease inhibitor brecanavir (GW640385) in combination with other antiretrovirals and against a panel of protease inhibitor-resistant HIV”, Antimicrob. Agents Chemother. 2007, 51: 3147-3154; and Pauwels et al., “Sensitive and rapid assay on MT-4 cells for the detection of antiviral compounds against the AIDS virus”, J. of Virological Methods 1987, 16: 171-185).
Luciferase activity was measured 96 hours later by adding a cell titer glo (Promega, Madison, Wis.). Percent inhibition of cell protection data was plotted relative to no compound control. Under the same condition, cytotoxicity of the compounds was determined using cell titer Glo™ (Promega, Madison, Wis.). IC50s were determined from a 10 point dose response curve using 3-4-fold serial dilution for each compound, which spans a concentration range >1000 fold.
These values are plotted against the molar compound concentrations using the standard four parameter logistic equation: y=((Vmax*x^n)/(K^n+x^n))+Y2
Y2=minimum y n=slope factor
Vmax=maximum y x=compound concentration [M]
As usually defined, the IC50 is the concentration needed to halve the response being measured. With `Cc1ccc(-c2c(C)c(C(=O)N[C@H]3CC[C@H](C)CC3)cc(=O)n2C(CC(C)(C)C)C(=O)O)cc1` (stereo partly drawn) [Example 1, 4,4-Dimethyl-2-(5-methyl-4-(((1r,4r)-4-methylcyclohexyl)carbamoyl)-2-oxo-6-(p-tolyl)pyridin-1(2H)-yl)pentanoic acid], the IC50 was determined as 0.35 µM.
To `Cc1ccc(-c2c(C)c(-c3ccc(C)c(C)c3)cc(=O)n2C(CC(C)(C)C)C(=O)O)cc1` (stereo not drawn) [Example 2, 2-(4-(3,4-Dimethylphenyl)-5-methyl-2-oxo-6-(p-tolyl)pyridin-1(2H)-yl)-4,4-dimethylpentanoic acid] belongs 1.09 µM; to `Cc1ccc(-c2c(C)c(-c3ccc(C)c(C)c3)c(NS(C)(=O)=O)c(=O)n2C(CC(C)(C)C)C(=O)O)cc1` (stereo not drawn) [Example 3, 2-(4-(3,4-dimethylphenyl)-5-methyl-3-(methylsulfonamido)-2-oxo-6-(p-tolyl)pyridin-1(2H)-yl)-4,4-dimethylpentanoic acid], 0.31 µM; to `Cc1ccc(-c2c(C)cc(NS(C)(=O)=O)c(=O)n2C(CC(C)(C)C)C(=O)O)cc1` (stereo not drawn) [Example 4, 4,4-Dimethyl-2-(5-methyl-3-(methylsulfonamido)-2-oxo-6-(p-tolyl)pyridin-1(2H)-yl)pentanoic acid], 33 µM.
Regarding `Cc1ccc(-c2c(C)c(-c3nnc(N[C@H]4CC[C@H](C)CC4)o3)cc(=O)n2C(CC(C)(C)C)C(=O)O)cc1` (stereo partly drawn) [Example 6, 4,4-Dimethyl-2-(5-methyl-4-(5-(((1 r,4r)-4-methylcyclohexyl)amino)-1,3,4-oxadiazol-2-yl)-2-oxo-6-(p-tolyl)pyridin-1(2H)-yl)pentanoic acid], the concentration for half-maximal inhibition (IC50) is 5.6 µM.
Regarding `Cc1ccc(-c2c(C)c(C(=O)NC3CCCCC3)cc(=O)n2C(CC(C)(C)C)C(=O)O)cc1` (stereo not drawn) [Example 7, 2-(4-(cyclohexylcarbamoyl)-5-methyl-2-oxo-6-p-tolylpyridin-1(2H)-yl)-4,4-dimethylpentanoic acid], the IC50 was 0.43 µM.
As for `Cc1ccc(-c2c(C)c(C(=O)NCC3CCCCC3)cc(=O)n2C(CC(C)(C)C)C(=O)O)cc1` (stereo not drawn) [Example 8, 2-(4-(cyclohexylmethylcarbamoyl)-5-methyl-2-oxo-6-p-tolylpyridin-1(2H)-yl)-4,4-dimethylpentanoic acid], the figure is 0.84 µM.
In the case of `Cc1ccc(-c2c(C)c(C(=O)NCc3ccccc3)cc(=O)n2C(CC(C)(C)C)C(=O)O)cc1` (stereo not drawn) [Example 9, 2-(4-(benzylcarbamoyl)-5-methyl-2-oxo-6-p-tolylpyridin-1(2H)-yl)-4,4-dimethylpentanoic acid], the IC50 was 3.29 µM.
In the case of `Cc1ccc(-c2c(C)cc(NS(=O)(=O)CC3CCCCC3)c(=O)n2C(CC(C)(C)C)C(=O)O)cc1` (stereo not drawn) [Example 10, 2-(3-(cyclohexylmethylsulfonamido)-5-methyl-2-oxo-6-(p-tolyl)pyridin-1(2H)-yl)-4,4-dimethylpentanoic acid], the 50% inhibitory concentration (IC50) was 1.56 µM.

Source of the values: patent US9802898B2, “Phenyl and tertbutylacetic acid substituted pyridinones having anti-HIV effects” (priority 2014, dated 2017).
